US11617748B2, “Meclozine derivatives and diclazuril derivatives for use in the prevention and/or the treatment of disorders associated to the inflammation induced by P. acnes” (priority 2016, dated 2023)

Columns and labels:
IL-1β production = assay: PGN- and LTA-induced IL-1β production in ThP-1 monocytes (ELISA); type: cell-based, human; conditions: ThP-1, 6.25 μM, 24 h pre-treatment, PGN or LTA 5-20 μg/ml
Method: (§1) ELISA. Human IL-1β, IL-8, hBD-2 and TNF-α protein concentration were measured in the supernatants of stimulated cells using various ELISA Sets (all from Ready-Set-Go from eBioscience, except hBD-2 measurements: Human DEFB4A/BD-2 ELISA Kit from LSBio) according to the manufacturer's instructions. We used serial dilutions of recombinant human IL-1β, IL-8, hBD-2 and TNF-α for standard curve. The optical density was determined at 450 nm at a wavelength correction of 540 nm.

[1] = test system: P. acnes-induced ear inflammation; assay: In vivo model of P. acnes-induced inflammation in mouse ears; conditions: mice; for decrease of the ear inflammation: topical, each day for 3 days, score over 96 h
Method: This model is based on the capacity of mouse ears to react while P. acnes is intradermally injected. The inflammatory reaction is evaluated each day over a period of 4 days after P. acnes injection by measuring the thickness of the ears, the redness as well as the presence of a desquamation and/or small pustules. At the end of the experiment, final measurement of inflammation was realized and photographic pictures of ears were taken. Then, mice were euthanized and ears were immediately fixed in a formalin-containing buffer for a future histological analysis. The experimental design consisted of 3 groups containing 10 mice each. 1) PBS corresponds to the non-treated group injected with PBS. 2) PA+Vehicle TOPIC corresponds to P. acnes injected in ears treated with Vaseline alone. 3) PA+diclazuril corresponds to P. acnes injected in ears treated with 1.3% diclazuril mixed with Vaseline. The preparation of the 1.3% diclazuril gel consisted of extemporaneously gently mixing 6.5 mg of diclazuril with […] for 1 min at room temperature (21° C.) and then directly applied to the mouse ears. This model is based on the capacity of mouse ears to react while P. acnes is intradermally injected. The inflammatory reaction is evaluated each day over a period of 4 days after P. acnes injection by measuring the thickness of the ears, the redness as well as the presence of a desquamation and/or small pustules. At the end of the experiment, final measurement of inflammation was realized and photographic pictures of ears were taken. Then, mice were euthanized and ears were immediately fixed in a formalin-containing buffer for a future histological analysis.

IL-8 production = assay: P. acnes-induced IL-8 production in HaCaT keratinocytes (ELISA); type: cell-based, human; conditions: for reduction of IL-8 production, 24 h pre-treatment / effect on IL-8 production (time course, FIG. 4A) / effect on IL-8 production at 12.5 μM, in words / reduction of IL-8 production, 1 and 6 h pre-treatment / decrease of IL-8 production, 48 h pre-treatment: HaCaT; for reduction of IL-8 production, 24 h pre-treatment: 6.25 μM; for reduction of IL-8 production, 24 h pre-treatment / reduction of IL-8 production, 1 and 6 h pre-treatment / decrease of IL-8 production, 48 h pre-treatment: P. acnes 18 h; for effect on IL-8 production (time course, FIG. 4A): 10 μM, P. acnes 15-180 min; for reduction of IL-8 production, 24 h pre-treatment / effect on IL-8 production (time course, FIG. 4A): 24 h pre-treatment; for effect on IL-8 production at 12.5 μM, in words: 24 h pre-treatment (FIG. 8B); for reduction of IL-8 production, 1 and 6 h pre-treatment: 0.39 to 12.5 μM; for IC50: Homo sapiens, HaCaT cells pre-treated 24 h, then stimulated with P. acnes, read-out: IC50 of inhibition of IL-8 production
Method: Bacterial strain and conditions of growth. P. acnes strain 6919 was obtained from the American Type Culture Collection (Manassas, Va.) and P. acnes strains RON and PIE were isolated from patient with joint infection. All strains were grown under anaerobic conditions in reinforced clostridial liquid and solid medium (RCM) (Difco Laboratories, Detroit, Mich.). P. acnes was transferred from the bacterial stock onto RCM agar plate and incubated for 5 days under anaerobic condition by using a GasPak™ EZ Anaerobic Container System (Becton Dickinson & Co, Sparks Md., USA). A single colony was transferred into 100 ml RCM and grown as described above. Bacterial suspension was then store frozen at −80° C. in presence of 10% glycerol final. This stock was called «start stock» and used for all the experiments. For routine culture, 100 ml of RCM was used and bacteria were harvested after 5 days at 37° C. by centrifugation at 7,000×g for 10 min at 4° C. Pellets were pooled and washed in about 30 ml of cold sterile PBS [1.5 mM KH2PO4, 2.7 mM Na2HPO4.7H2O, 0.15 M NaCl (pH 7.4)] and centrifuged again as described above. Finally, the bacterial pellet was suspended in sterile PBS (1:10 from volume culture).
Cell culture, pretreatment and stimulation. The immortalized human keratinocyte cell line HaCaT, fibroblast MRC5 were grown in Dulbecco's modified Eagle's medium-Glutamax-I (DMEM) with 1 mM sodium pyruvate. The immortalized human monocytic cell line ThP1 was grown in Roswell Park Memorial Institute 1640 Medium-Glutamax-I (RPMI). DMEM and RPMI were supplemented with 0.1% and 10% heat-inactivated fetal calf serum (Invitrogen), and an antibiotic/antimycotic solution (10 U/ml Pencillin, 10 μg/ml Streptomycin, 0.25 μg/ml Amphoterin) at 37° C. in humidified atmosphere containing 5% CO2 as described (Life Technologie). Primary human keratinocytes (NHDK) and fibroblast (HDF) were grown in the KGM-Gold and in FGM-2 Bullet Kit, respectively, as described by the manufacturer (Lonza). The immortalized cell lines were routinely tested to assess the absence of Mycoplasma infection. Cells, cultivated in 6- or 96-well polystyrene plates, were pretreated with appropriate molecule solution for 1 to 48 h at 37° C. in the dark at the appropriate concentration. Then, for stimulation, cells were incubated for 15 min to 24 h with the P. acnes suspension adjusted at the appropriate concentration at 37° C. in 5% CO2. For experiences using an in vitro model of psoriasis, the primary human keratinocytes (NHDK) were grown in culture medium for 24 hours. The medium was removed and replaced with culture medium containing meclozine, diclazuril and JAK inhibitor (used as positive control) at the concentrations of 0.39, 0.78, 1.56, 3.12, 6.25 and 12.5 μM and the pro-inflammatory mixture M5 (combination of IL-17A, OSM, TNF-α, IL-22, IL-1α at 10 ng/ml) was added to the cells followed by an incubation for 48 or 72 hours.
as §1
Both molecules, diclazuril and meclozine, were purchased separately from Sigma and tested independently on immortalized keratinocytes HaCaT cell for their capacity to inhibit the IL-8 production in a dose-dependent manner. HaCaT cells were pre-treated with diclazuril and meclozine, at the concentrations ranging from 0.39 to 50 μM, for 24 h and then stimulated with P. acnes suspension as described in Materials and Methods. The production of IL-8 was measured on culture supernatant by ELISA and the viability of cells was estimated by MTT assay (FIG. 1).

TNF-α production = TNF-α production by the monocytic cell line; type: cell-based, human; conditions: data not shown
Method: as §1
Both molecules, were tested to inhibit the production of IL-1β by the monocytic cell line. ThP-1 cells were pretreated with diclazuril and meclozine, at the concentrations ranging from 0.39 to 50 μM, for 24 h and then stimulated with P. acnes suspension as described in Materials and Methods. The production of IL-1β was measured on culture supernatant by ELISA and the viability of cells was estimated by MTT assay (FIG. 2).

[2] = 1% meclozine gel topical, vs PA+Vehicle

SMILES: N#CC(c1ccc(Cl)cc1)c1c(Cl)cc(-n2ncc(=O)[nH]c2=O)cc1Cl (centres unmarked) [diclazuril, Diclazuril]
- decrease of IL-1β production (average) (IL-1β production): 64%
- decrease of the ear inflammation ([1]; 1.3% diclazuril in Vaseline): 37%
- reduction of IL-8 production, 24 h pre-treatment (IL-8 production): 36%
- effect on IL-8 production (time course, FIG. 4A) (IL-8 production): inhibit
- effect on IL-8 production at 12.5 μM, in words (IL-8 production): strong effect
- reduction of IL-8 production, 1 and 6 h pre-treatment (IL-8 production): did not reduce significantly
- decrease of IL-8 production, 48 h pre-treatment (IL-8 production): 65%
- IC50 (IL-8 production): ~6 µM
- inhibition of TNF-α production (TNF-α production): no effect

SMILES: Cc1cccc(CN2CCN(C(c3ccccc3)c3ccc(Cl)cc3)CC2)c1 (centres unmarked) [meclozine, Meclozine]
- decrease of IL-1β production (average) (IL-1β production): 36%
- decrease of the ear inflammation ([1]; 1% meclozine gel (Vaseline, DMSO, Solutol/water)): 29.5%
- ear thickness (histological analysis) [1, 2]: decrease
- leukocyte infiltration (histological analysis) [1, 2]: decrease
- reduction of IL-8 production, 24 h pre-treatment (IL-8 production): 63%
- effect on IL-8 production (time course, FIG. 4A) (IL-8 production): inhibit
- effect on IL-8 production at 12.5 μM, in words (IL-8 production): strong effect
- reduction of IL-8 production, 1 and 6 h pre-treatment (IL-8 production): did not reduce significantly
- decrease of IL-8 production, 48 h pre-treatment (IL-8 production): 78%
- IC50 (IL-8 production): ~3 µM
- inhibition of TNF-α production (TNF-α production): no effect
